Tests used:
[1] = pyrogallol induced ROS (superoxide) scavenging assay; format: biochemical; details: Concentration 250 μM; Time 0.5 h
[2] = tested on: primary microglia isolated from rat retina; test: TII induced ROS in primary microglia (DCFDA assay); details: for TII induced ROS production: 10 μM, 24 h, TII = TNF-α, IL-1β, IFN-γ
[3] = tested on: Nitric oxide synthetase (NOS); test: NOS activating activity in HUVEC under H2O2 stress; format: cell-based, Human; details: for level of NOS: HUVEC treated with H2O2, both doses 0.05 μM and 0.5 μM; for eNOS activity: HUVEC under H2O2 induced oxidative stress
Experimental: In vitro Nitric oxide synthetase (NOS) activating activity. Human Umbilical Vascular Endothelial Cells (HUVECs) were plated at a density of 2×10^5 cells per well and were treated with or without H2O2 (200 μM) and compounds at different concentrations. NOS knock-down samples (NOSi) were cells exposed to a competitive NOS inhibitor L-NNA at 50 μM. After 24-hour-treatment, total NOS activity from treated cells was quantified using OxiSelect™ Intracellular Nitric Oxide (NO) Assay Kit where NOS activity correlates to fluorescent intensity^5.

HUVEC [4] = test: HUVEC viability / cytoprotection under H2O2 induced oxidative stress (MTT); format: cell-based, Human
[5] = tested on: human trabecular meshwork cells; test: cytoprotection of human trabecular meshwork cells under TBHP induced oxidative stress; format: cell-based; details: for concentration providing cytoprotection: oxidative stress induced cell death model
[6] = tested on: plasminogen activating inhibitor-1 (PAI-1); test: DEX induced PAI-1 in human trabecular meshwork cells (western blot); format: cell-based; details: DEX 100 nM, compound 100 μM, 48 hr, conditioned medium
Experimental: Briefly, cells were plated at a density of 2×10^5 cells per well and were treated with DEX (100 nM) or vehicle (ethanol) in the presence of 100 μM of SA-1, SA-2, SA-9, SA-10 and PBA (positive control) for 48 hr. Conditioned medium was collected for western blot. Experiments were performed in triplicates.
In vitro plasminogen activating inhibitor-1 (PAI-1) activity. Human primary trabecular meshwork (hTM) cells were plated in 6-well plates at a density of 2×10^5 cells per well and were treated with dexamethasone (DEX, 100 nM) or vehicle (ethanol) in the presence of test compounds (100 μM) for 48 hr. Conditioned medium was collected for Western Blot. Experiments were performed in triplicates […].

[7] = tested on: mouse hippocampal neural cells (HT-22); test: cytotoxicity / proliferation in mouse hippocampal neural cells (HT-22); details: for cell proliferation: different doses
ROS in HUVEC cells = test: ROS scavenging in HUVEC under oxidative stress (DCFDA assay); format: cell-based, Human; details: H2O2 induced oxidative stress, SA-9 at 0.05 μM
HUVEC [8] = test: in vitro angiogenesis / tube formation under oxidative stress; format: cell-based, Human
Experimental: In vitro angiogenesis studies. Cultrex reduced growth factor basement membrane extracted gel (Cat. 3433-005-01, R&D Systems, Inc.) was coated on bottom of μ-Slide angiogenesis wells (Cat. 81506, iBidi GmbH Co.). ECs at early passages (passage 6th or earlier) were then seeded on gel at a seeding density of 25,000 cells/cm^2. Next, cells were treated with treatment groups (SA-2, SA-10, SA-10 NPs, VEGF) under stress condition (200 μM H2O2). After 12 hours of incubation, formation of new microtubes were visualized and captured on phase contrast microscopes. Images were then stacked and processed with Angiogenesis analyzer on ImageJ.

endothelial cells = test: transwell chemotaxis EC migration under oxidative stress; format: cell-based, Human
Experimental: Cell migration studies. Transwell chemotaxis migration studies were conducted to study effects of SA-2 and SA-10 drugs on the migration of endothelial cells under stress conditions. To this, ECs were seeded at 50,000 cells/cm^2 on upper compartment (low serum media with 200 μM H2O2) and attracted to migrate through 8 μm-pore membrane by chemotaxis (SA compounds dissolved in low serum media with 200 μM H2O2) added in lower compartment. At 12 hours, migrated cells were fixed with 4% paraformaldehyde and stained with crystal violet prior to imaging and counting by Cell counter on ImageJ.

[9] = tested on: primary microglia isolated from rat retina; test: TII induced nitric oxide in primary microglia (Greiss assay); format: cell-based; details: 10 μM, 24 h
[10] = tested on: primary microglia isolated from rat retina; test: TII induced cell death in primary microglia (LDH assay); format: cell-based; details: 10 μM, 24 h

## [NH-]c1c[n+](N2CCOCC2)no1 [SIN-1, reference compound]
[1]
  AUCt=0 to t=3h: 1856
[2]
  TII induced ROS production: did not

## O=c1cc(-c2ccccc2)oc2cc(O)c(O)c(O)c12 [Baicalein, baicalein]
[1]
  AUCt=0 to t=3h: 1944

## CC1(C)CC([n+]2cc(N)on2)CC(C)(C)N1O [SA-2, reference compound]
[1]
  AUCt=0 to t=3h: 3338
[3]
  level of NOS: increased the level of NOS significantly
  eNOS activity: induced eNOS signals
HUVEC [4]; ECs under H2O2 stress
  effective range of concentration to protect ECs: up to 1 μM
HUVEC [4]; HUVEC, H2O2 induced oxidative stress
  doses showing cytoprotective activity: decreased as the dose increased
[5]
  concentration providing cytoprotection: 16 µM
[6]
  DEX induced PAI-1: didn't show such activity
[7]
  cell proliferation: didn't show such trend

## Nc1c[n+](C2CCSCC2)no1 [SA-9]
[1]
  AUCt=0 to t=3h: 3402
[3]
  level of NOS: increased the level of NOS significantly
  eNOS activity: increase in eNOS activity
ROS in HUVEC cells
  ROS scavenging activity in DCFDA assay: scavenged ROS
HUVEC [4]; HUVEC, H2O2 induced oxidative stress, different concentrations
  cytoprotective activity: potent cytoprotective activity
HUVEC [8]; HUVEC under oxidative stress (200 μM H2O2)
  angiogenesis and new tube formation: induce angiogenesis and new tube formation
HUVEC [8]; SA-9 0.5 μM, SA-10 0.005 μM, H2O2 200 μM, low serum media
  angiogenesis and new tube formation (FIG. 5): induce angiogenesis and new tube formation
Endothelial cells
  EC migration: induce EC migration
Endothelial cells; 0.5 μM, transwell
  EC migration (FIG. 6): induce EC migration
[5]; TBHP (300 μM) induced oxidative stress
  cytoprotective activity: superior cytoprotective activity
[5]
  concentration providing cytoprotection: 8 µM
[9]
  TII induced nitric oxide (nitrite) production: decrease
[10]
  TII induced cell death (LDH release): decrease the cell death
[2]
  TII induced ROS production: decrease
[2]; rat primary microglia, without TII
  activation of microglia by the compound itself: did not activate
[7]; different concentrations
  cytotoxicity: not toxic to neural cells
[7]
  cell proliferation: dose dependent increase in cell proliferation

— patent US12234228B2, “Nitric oxide donor and anti-oxidant compounds” (University of North Texas Health Science Center, priority 2018, dated 2025)
